Test results as given in publication PMC10229121, “An acetylation-mediated chromatin switch governs H3K4 methylation read-write capability” (eLife, 2023).

System: histone H3.1 modifications in HEK-293 cells
Assay: Middle-down mass spectrometry of histone H3.1 from HEK-293 cells ± KDAC inhibition (H3K9 methylation, {K9ac, K14ac, K18ac} proteoforms, H3K4 methylation)
Assay type: cell-based
Conditions: for 3ac including {K9ac, K14ac, K18ac} / 4ac including {K9ac, K14ac, K18ac} / 5ac including {K9ac, K14ac, K18ac}: HEK-293, H3.1 butyrate treated; for H3K9me0 / H3K9me1 / H3K9me2 / H3K9me3: HEK-293, butyrate treated
Procedure: Figure 3. […] (A) Occupancy of H3K4 methyl states (me0-1-2-3) within each H3 acetyl state (0ac to 5ac) in asynchronous MCF-7 cells. (B) Occupancy of H3K4 methyl states within each H3 acetyl state after butyrate treatment (60 min). Asterisks represent p-values <0.05. […] Each spectrum is an average of MS2 spectra of the indicated H3 acetyl states after 60 min of butyrate treatment. K4 occupancy stoichiometry is directly correlated with H3 acetylation state and the targeted MS approach provides excellent signal-to-noise for confident quantitation. […] See Methods for further information on data acquisition and analysis. All data were collected in biological triplicate with error bars representing SEM. Figure 3—figure supplement 1. H3 acetylation states with sodium butyrate treatment. (A - B) Each acetyl state of acid-extracted H3 from 0ac to 5ac is represented as a percent of total H3 before/after 60 min treatment of asynchronous MCF-7 cells with 5 mM sodium butyrate. (C) Occupancy of H3K4 methyl states (me0-1-2-3) within each H3 acetyl state (0ac to 5ac) in asynchronous HEK-293 cells. (D) Occupancy of H3K4 methyl states within each H3 acetyl state after butyrate treatment (120 min) in asynchronous HEK-293 cells. (E) Percentage of (K9ac, K14ac, K18ac) proteoforms within 3ac to 5ac acetyl states of H3.1 ± butyrate treatment in HEK-293 cells. N=3 and error bars are SEM for all data. [drawing 3]
MCF-7 breast cancer cells (ATCC HTB-22) were grown in MEM (Gibco) supplemented with 10% fetal bovine serum (VWR), 100 I.U. penicillin, 100 µg/mL streptomycin (Corning), 0.01 mg/mL human recombinant insulin (Gibco), and 5 µg/mL plasmocin (Invivogen) at 37 °C and 5% CO2. HEK-293 (ATCC CRL-1573) was grown in DMEM (Gibco) supplemented with 10% fetal bovine serum (Corning), 100 I.U. penicillin, and 100 µg/mL streptomycin (Gibco) at 37 °C and 5% CO2. Both cell lines were authenticated via STR profiling and confirmed to be Mycoplasma negative.
For mass spectrometric (MS) analysis ± KDAC inhibition, cells were cultured in 150 mm dishes to ~80% confluence and treated with 5 mM sodium butyrate (or equivalent volume of water) in triplicate for 0, 10, 20, 30, 60, 120 min. […] Histones were acid extracted after nuclei isolation as described ([Holt et al., 2021]). Isolated histones were resuspended in 85 µL 5% acetonitrile, 0.2% trifluoroacetic acid (TFA), and resolved by offline high-performance liquid chromatography (HPLC) as described ([Holt et al., 2021]). […] After chromatographic separation and fraction collection, histone H3.1 was selected, diluted in 100 mM ammonium acetate (pH = 4), and digested with Glu-C protease (Roche) at 10:1 protein:enzyme for 1 hr at room temperature prior to mass spectrometric analysis.
The digested samples were diluted to 2 µg/µL. Online HPLC was performed on a U3000 RSLC nano Pro-flow system using a C3 column (Zorbax 300 SB-C3, 5 µm; Agilent). Samples were maintained at 4 °C and 1 µL injected for each analysis using a microliter pickup. […] The column eluant was introduced into an Orbitrap Fusion Lumos mass spectrometer (Thermo Fisher) by nano-electrospray ionization. A static spray voltage of 1900 V and an ion transfer tube temperature of 320 °C were set for the source.
A Fusion Lumos mass spectrometer was used to generate MS data. The 9th charge state of histone H3 was targeted for analysis. MS1 analysis was acquired in the orbitrap with a normal mass range and a 60 k resolution setting in positive ion mode. An Automatic Gain Control (AGC) target of 5.0E5 with a 200 ms maximum injection time, three microscans, and a scan range of 585–640 m/z was used to identify desired ions for fragmentation. MS2 acquisition was performed in both orbitrap and ion trap modes. Both modes used electron transfer dissociation (ETD), a reaction time of 18ms, and an injection time of 200 ms. […]

With CCCC(=O)O [sodium butyrate] the “3ac including {K9ac, K14ac, K18ac}” value was 1.6743 Percentage, the “4ac including {K9ac, K14ac, K18ac}” value was 16.6357 Percentage and the “5ac including {K9ac, K14ac, K18ac}” value was 100 Percentage. The “3ac including {K9ac, K14ac, K18ac}” value (column 1 of 3) was 1.334 Percentage, the “4ac including {K9ac, K14ac, K18ac}” value (column 1 of 3) was 17.3973 Percentage and the “5ac including {K9ac, K14ac, K18ac}” value (column 1 of 3) was 100 Percentage. For the same compound, the “3ac including {K9ac, K14ac, K18ac}” value (column 2 of 3) was 1.24 Percentage, the “4ac including {K9ac, K14ac, K18ac}” value (column 2 of 3) was 17.858 Percentage and the “5ac including {K9ac, K14ac, K18ac}” value (column 2 of 3) was 100 Percentage. The H3K9me0 (0ac) was 48.8895 Percentage, the H3K9me1 (0ac) was 7.899 Percentage and the H3K9me2 (0ac) was 29.443 Percentage. It also gave an H3K9me3 (0ac) of 13.7682 Percentage, an H3K9me0 (0ac, column 1 of 3) of 54.4348 Percentage and an H3K9me1 (0ac, column 1 of 3) of 4.2113 Percentage. The H3K9me2 (0ac, column 1 of 3) was 27.4814 Percentage, the H3K9me3 (0ac, column 1 of 3) was 13.8725 Percentage and the H3K9me0 (0ac, column 2 of 3) was 51.9841 Percentage. It also gave an H3K9me1 (0ac, column 2 of 3) of 5.137 Percentage, an H3K9me2 (0ac, column 2 of 3) of 26.9782 Percentage and an H3K9me3 (0ac, column 2 of 3) of 15.9004 Percentage. It also gave an H3K9me0 (1ac) of 27.5434 Percentage, an H3K9me1 (1ac) of 15.9623 Percentage and an H3K9me2 (1ac) of 38.0917 Percentage. For the same compound, the H3K9me3 (1ac) was 17.0037 Percentage, the H3K9me0 (1ac, column 1 of 3) was 28.711 Percentage and the H3K9me1 (1ac, column 1 of 3) was 14.4169 Percentage. For the same compound, the H3K9me2 (1ac, column 1 of 3) was 39.3301 Percentage, the H3K9me3 (1ac, column 1 of 3) was 15.8799 Percentage and the H3K9me0 (1ac, column 2 of 3) was 28.8744 Percentage. The H3K9me1 (1ac, column 2 of 3) was 14.4284 Percentage, the H3K9me2 (1ac, column 2 of 3) was 38.0038 Percentage and the H3K9me3 (1ac, column 2 of 3) was 16.6818 Percentage. For the same compound, the H3K9me0 (2ac) was 27.9258 Percentage, the H3K9me1 (2ac) was 21.3235 Percentage and the H3K9me2 (2ac) was 37.139 Percentage. It also gave an H3K9me3 (2ac) of 9.818 Percentage, an H3K9me0 (2ac, column 1 of 3) of 28.9582 Percentage and an H3K9me1 (2ac, column 1 of 3) of 21.0866 Percentage. The H3K9me2 (2ac, column 1 of 3) was 35.8684 Percentage, the H3K9me3 (2ac, column 1 of 3) was 10.0575 Percentage and the H3K9me0 (2ac, column 2 of 3) was 26.6449 Percentage. For the same compound, the H3K9me1 (2ac, column 2 of 3) was 22.0491 Percentage, the H3K9me2 (2ac, column 2 of 3) was 35.8906 Percentage and the H3K9me3 (2ac, column 2 of 3) was 10.993 Percentage. It also gave an H3K9me0 (3ac) of 21.6496 Percentage, an H3K9me1 (3ac) of 12.8486 Percentage and an H3K9me2 (3ac) of 25.9132 Percentage. The H3K9me3 (3ac) was 9.297 Percentage, the H3K9me0 (3ac, column 1 of 3) was 21.2886 Percentage and the H3K9me1 (3ac, column 1 of 3) was 12.9304 Percentage. It also gave an H3K9me2 (3ac, column 1 of 3) of 26.508 Percentage, an H3K9me3 (3ac, column 1 of 3) of 10.2618 Percentage and an H3K9me0 (3ac, column 2 of 3) of 21.713 Percentage. The H3K9me1 (3ac, column 2 of 3) was 11.1466 Percentage, the H3K9me2 (3ac, column 2 of 3) was 27.8034 Percentage and the H3K9me3 (3ac, column 2 of 3) was 10.4504 Percentage. It also gave an H3K9me0 (4ac) of 4.833 Percentage, an H3K9me1 (4ac) of 7.36 Percentage and an H3K9me2 (4ac) of 8.881 Percentage. For the same compound, the H3K9me3 (4ac) was 1.604 Percentage, the H3K9me0 (4ac, column 1 of 3) was 5.043 Percentage and the H3K9me1 (4ac, column 1 of 3) was 6.813 Percentage. It also gave an H3K9me2 (4ac, column 1 of 3) of 10.053 Percentage, an H3K9me3 (4ac, column 1 of 3) of 3.009 Percentage and an H3K9me0 (4ac, column 2 of 3) of 4.13 Percentage. For the same compound, the H3K9me1 (4ac, column 2 of 3) was 7.856 Percentage, the H3K9me2 (4ac, column 2 of 3) was 9.753 Percentage and the H3K9me3 (4ac, column 2 of 3) was 2.246 Percentage. The H3K9me0 (5ac) was 0 Percentage, the H3K9me1 (5ac) was 0 Percentage and the H3K9me2 (5ac) was 0 Percentage. The H3K9me3 (5ac) was 0 Percentage, the H3K9me0 (5ac, column 1 of 3) was 0 Percentage and the H3K9me1 (5ac, column 1 of 3) was 0 Percentage. The H3K9me2 (5ac, column 1 of 3) was 0 Percentage, the H3K9me3 (5ac, column 1 of 3) was 0 Percentage and the H3K9me0 (5ac, column 2 of 3) was 0 Percentage. It also gave an H3K9me1 (5ac, column 2 of 3) of 0 Percentage, an H3K9me2 (5ac, column 2 of 3) of 0 Percentage and an H3K9me3 (5ac, column 2 of 3) of 0 Percentage. For the same compound, the “H3K9me3 on hyperacetylated H3 proteoforms, in words” value (HEK-293, ± butyrate) was “H3K9me3 did not accumulate with hyperacetylated H3 proteoforms” and the “{K9ac, K14ac, K18ac} in 5ac proteoforms, in words” value (HEK-293, ± butyrate) was “all penta-acetylated (5ac) H3 proteoforms consisted of acetylation at H3K9, K14, and K18 at minimum”.
